Reference: publication PMC9673787, “1,2,3-Benzoxathiazine-2,2-dioxides – effective inhibitors of human carbonic anhydrases” (Journal of Enzyme Inhibition and Medicinal Chemistry, 2022)
Read-outs that look alike come from different tables or passages of the source.

What was measured:
hCA I = target: T1, hCA I (Homo sapiens, UniProt P00915); experiment: stopped flow CO2 hydrase assay, hCA I; assay type: biochemical; conditions: 15 min incubation; for Ki: recombinant enzyme, mean from three assays, errors ± 5–10%
T1 construct: made in house
Procedure: (§1) An applied photophysics stopped-flow instrument has been used for assaying the CA catalysed CO2 hydration activity.[32]
(§2) Phenol red (at a concentration of 0.2 mM) was used as indicator, working at the absorbance maximum of 557 nm, with 20 mM Hepes (pH 7.5), and 20 mM Na2SO4 (for maintaining constant the ionic strength), following the initial rates of the CA-catalysed CO2 hydration reaction for a period of 10 − 100 s. The CO2 concentrations ranged from 1.7 to 17 mM for the determination of the kinetic parameters and inhibition constants. […] The uncatalysed rates were determined in the same manner and subtracted from the total observed rates. Stock solutions of inhibitor (0.1 mM) were prepared in distilled – deionised water, and dilutions up to 0.01 nM were done thereafter with the assay buffer. Inhibitor and enzyme solutions were preincubated together for 15 min at room temperature prior to assay in order to allow for the formation of the E – I complex. […] The inhibition constants were obtained by nonlinear least-squares methods using PRISM 3 and the Cheng – Prusoff equation, as reported earlier[15]^,[33–37]^, and represent the mean from at least three different determinations. All CA isoforms were recombinant ones obtained in-house as reported earlier[12]^,[18]^,[38–45].

hCA II = target: T2, hCA II (Homo sapiens, UniProt P00918); experiment: stopped flow CO2 hydrase assay, hCA II; assay type: biochemical; conditions: 15 min incubation
T2 construct: made in house
Procedure: as §1, §2

hCA IX = target: T3, hCA IX (Homo sapiens, UniProt Q16790); experiment: stopped flow CO2 hydrase assay, hCA IX; assay type: biochemical; conditions: recombinant enzyme, 15 min incubation, mean from three assays, errors ± 5–10%
T3 construct: made in house
Procedure: as §1, §2

hCA XII = target: T4, hCA XII (Homo sapiens, UniProt O43570); experiment: stopped flow CO2 hydrase assay, hCA XII; assay type: biochemical; conditions: 15 min incubation; for Ki: recombinant enzyme, mean from three assays, errors ± 5–10%
T4 construct: made in house
Procedure: as §1, §2

[1] = recombinant enzyme, mean from three assays, errors ± 5–10%, read-out: KI (nM) hCA II

T1 sequence (P00915 whole entry): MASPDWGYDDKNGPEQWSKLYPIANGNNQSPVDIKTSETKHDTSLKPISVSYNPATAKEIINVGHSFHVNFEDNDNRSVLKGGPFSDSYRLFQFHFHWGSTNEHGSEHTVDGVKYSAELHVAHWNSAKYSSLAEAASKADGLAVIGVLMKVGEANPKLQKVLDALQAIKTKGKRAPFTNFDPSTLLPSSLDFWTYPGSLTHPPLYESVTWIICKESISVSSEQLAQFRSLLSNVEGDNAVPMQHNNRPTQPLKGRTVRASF
T4 sequence (O43570 25-354): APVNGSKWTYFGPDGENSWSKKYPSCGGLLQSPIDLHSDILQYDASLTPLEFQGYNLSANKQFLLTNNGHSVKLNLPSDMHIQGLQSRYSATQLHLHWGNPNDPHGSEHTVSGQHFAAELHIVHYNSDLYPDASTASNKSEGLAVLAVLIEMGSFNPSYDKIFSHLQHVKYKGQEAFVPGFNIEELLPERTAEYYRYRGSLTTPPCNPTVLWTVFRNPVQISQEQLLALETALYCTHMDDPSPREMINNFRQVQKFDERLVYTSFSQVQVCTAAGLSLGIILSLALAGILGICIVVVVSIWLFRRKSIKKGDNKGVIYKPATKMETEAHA

Compound	Ki (hCA I) [nM]	Ki (hCA II; [1]) [nM]	Ki (hCA IX) [nM]	Ki (hCA XII) [nM]	melting point [°C]	inhibition of hCA I in words (hCA I)	Ki (hCA II; rounded, read-out: Ki hCA II) [nM]	inhibition of hCA II in words (hCA II)	inhibition of hCA XII in words (hCA XII)
COc1ccc2c(c1)C=NS(=O)(=O)O2 [2b, 6-Methoxy-1,2,3-benzoxathiazine 2,2-dioxide]	> 100000	168	62.8	75.1	–	did not inhibit	–	–	–
COc1ccc2c(c1)OS(=O)(=O)N=C2 [2f, 7-Methoxy-1,2,3-benzoxathiazine 2,2-dioxide]	987	55.2	39.7	83.1	–	–	–	–	–
O=S1(=O)N=Cc2ccc(Br)cc2O1 [2h, 7-Bromo-1,2,3-benzoxathiazine 2,2-dioxide]	46500	45.1	22.3	70.1	–	–	–	–	–
Cc1ccc2c(c1)C=NS(=O)(=O)O2 [2a, 6-Methyl-1,2,3-benzoxathiazine 2,2-dioxide]	25700	116	72	98.2	–	–	–	–	–
O=S1(=O)N=Cc2cccc(F)c2O1 [2j, 8-Fluoro-1,2,3-benzoxathiazine 2,2-dioxide]	466	89.2	65.9	34.7	–	–	–	–	–
O=S1(=O)N=Cc2cc(Br)ccc2O1 [2d, 6-Bromo-1,2,3-benzoxathiazine 2,2-dioxide]	> 100000	8320	27.4	186	–	did not inhibit	8300	–	–
O=S1(=O)N=Cc2cc(F)ccc2O1 [2c, 6-Fluoro-1,2,3-benzoxathiazine 2,2-dioxide]	3320	71.8	58.3	121	–	–	–	–	–
O=S1(=O)N=Cc2ccc(F)cc2O1 [2g, 7-Fluoro-1,2,3-benzoxathiazine 2,2-dioxide]	448	86.7	55.4	112	–	–	–	–	–
COc1cccc2c1OS(=O)(=O)N=C2 [2i, 8-Methoxy-1,2,3-benzoxathiazine 2,2-dioxide]	1520	39	73.6	63.4	–	–	–	–	–
O=S1(=O)N=Cc2cccc(Br)c2O1 [2k, 8-Bromo-1,2,3-benzoxathiazine 2,2-dioxide]	788	113	41.8	86.3	–	–	–	–	–
Cc1ccc2c(c1)OS(=O)(=O)N=C2 [2e, 7-Methyl-1,2,3-benzoxathiazine 2,2-dioxide]	657	78.9	53.1	58	–	–	–	–	–

More lines, main results first:

Ki (hCA I) [nM]	Ki (hCA II; [1]) [nM]	Ki (hCA IX) [nM]	Ki (hCA XII) [nM]	melting point [°C]	inhibition of hCA I in words (hCA I)	Ki (hCA II; rounded, read-out: Ki hCA II) [nM]	inhibition of hCA II in words (hCA II)	Compound	inhibition of hCA XII in words (hCA XII)
356	0.8	38	90.5	204 to 205	–	–	–	CCOC(=O)c1ccc(-c2ccc3c(c2)OS(=O)(=O)N=C3)cc1 [5i, Ethyl 4-(2,2-dioxido-1,2,3-benzoxathiazin-7-yl)benzoate]	–
15200	2.1	69.8	8.2	164 to 165	–	–	–	O=S1(=O)N=Cc2ccc(-c3ccc(F)cc3)cc2O1 [5g, 7-(4-Fluorophenyl)-1,2,3-benzoxathiazine 2,2-dioxide]	–
668	0.5	49.1	61.8	164 to 165	–	–	–	O=S1(=O)N=Cc2cccc(-c3ccccc3)c2O1 [5j, 8-Phenyl-1,2,3-benzoxathiazine 2,2-dioxide]	–
> 100000	36900	10900	18000	177 to 178	–	–	–	COc1ccc(-c2cccc3c2C=NS(=O)(=O)O3)cc1 [5c, 5–(4-Methoxyphenyl)-1,2,3-benzoxathiazine 2,2-dioxide]	–
> 100000	9870	5250	12600	156 to 157	–	–	–	O=S1(=O)N=Cc2c(cccc2-c2ccccc2)O1 [5a, 5-Phenyl-1,2,3-benzoxathiazine 2,2-dioxide]	–
5680	7.7	28.6	78.3	171 to 172	–	–	–	O=S1(=O)N=Cc2ccc(-c3ccccc3)cc2O1 [5f, 7-Phenyl-1,2,3-benzoxathiazine 2,2-dioxide]	–
6710	9.5	40.8	4.8	165 to 166	–	–	–	O=S1(=O)N=Cc2cccc(-c3ccc(Cl)c(Cl)c3)c2O1 [5m, 8-(3,4-Dichlorophenyl)-1,2,3-benzoxathiazine 2,2-dioxide]	–
4260	12.3	62.7	7.3	133 to 134	–	–	–	COc1ccc(-c2cccc3c2OS(=O)(=O)N=C3)cc1 [5l, 8-(4-Methoxyphenyl)-1,2,3-benzoxathiazine 2,2-dioxide]	–
30300	14.3	45.2	36.4	181 to 182	–	–	–	COc1ccc(-c2ccc3c(c2)OS(=O)(=O)N=C3)cc1 [5h, 7-(4-Methoxyphenyl)-1,2,3-benzoxathiazine 2,2-dioxide]	–
> 100000	14800	4140	7460	–	–	–	–	O=S1(=O)N=Cc2c(cccc2-c2ccc(F)cc2)O1 [5b, 5-(4-Fluorophenyl)-1,2,3-benzoxathiazine 2,2-dioxide]	–
> 100000	> 100000	> 100000	45300	230 to 231	–	–	not inhibited	O=S1(=O)N=Cc2c(cccc2-c2ccc(Cl)c(Cl)c2)O1 [5d, 5-(3,4-Dichlorophenyl)-1,2,3-benzoxathiazine 2,2-dioxide]	–
1850	5.6	32.3	12.4	123 to 124	–	–	–	O=S1(=O)N=Cc2cccc(-c3ccc(F)cc3)c2O1 [5k, 8-(4-Fluorophenyl)-1,2,3-benzoxathiazine 2,2-dioxide]	–
> 100000	> 100000	> 100000	> 100000	–	–	–	not inhibited	CCOC(=O)c1ccc(-c2cccc3c2C=NS(=O)(=O)O3)cc1 [5e, Ethyl 4-(2,2-dioxido-1,2,3-benzoxathiazin-5-yl)benzoate]	did not exhibit any inhibitory properties
